The record followed here is patent publication EP0891770B1, “Killer T cell activator and use thereof” (Nitto Denko Corporation, priority 1997, dated 1999).

Data set [1] concerns antigenic peptide-pulsed L^kb cells.
Data set [2] concerns HSV peptide-pulsed L cells. The note with it: peptide given as inoculated pressure sensitive adhesive tape.
Method: At 1 week after the peptide application, cervical lymph node was removed, and lymphocytes were cultured for 2 days in vitro in an RPMI1640 medium containing a slight amount (5 U/ml) of IL-2. The L^kb cells labeled with ^51Cr were pulsed with antigenic peptide (5 µmol) and L^tk- cells were used as a control. Cytotoxicity assay was performed using cultured lymphocytes as effector cells, and ^51Cr-labeled and antigenic peptide-pulsed L^kb cells and L^tk- cells as target cells. […] The antigenic peptides used were the three kinds recited in Reference Example 1.

Read-outs that look alike come from different tables or passages of the source. Where a SMILES comes first, the peptide text is derived from it.

For the compound `CC[C@H](C)[C@H](NC(=O)[C@H](CO)NC(=O)[C@@H](N)CO)C(=O)N[C@@H](CCC(=O)O)C(=O)N[C@@H](Cc1ccccc1)C(=O)N[C@@H](C)C(=O)N[C@@H](CCCNC(=N)N)C(=O)N[C@@H](CC(C)C)C(=O)O` [HSV gp B, Ser Ser Ile Glu Phe Ala Arg Leu] (H-SSIEFARL-OH), the “cytotoxic activity of cervical lymphocyte-derived effector cells (antigen specificity)” value (from here on “cytotoxic activity … (antigen specificity)”) in data set [1] was “recognized and certainly eradicated the cells presenting an H-2K^b - HSV gp B peptide complex alone”. The “Cytotoxic activity specific to HSV peptide-pulsed L cells (%)” value in data set [2] (time after stripping 12) was found to be 45.3 ± 1.5%; in data set [2] (time after stripping 24), 37.0 ± 1.1%; in data set [2] (time after stripping 48) it was 3.5 ± 0.6%; in data set [2] (time after stripping: untreated), 0.2 ± 0.8%.

For the compound `CC[C@H](C)[C@H](NC(=O)[C@@H](NC(=O)[C@@H](N)CO)[C@@H](C)CC)C(=O)N[C@@H](CC(N)=O)C(=O)N[C@@H](Cc1ccccc1)C(=O)N[C@@H](CCC(=O)O)C(=O)N[C@@H](CCCCN)C(=O)N[C@@H](CC(C)C)C(=O)O` [Ovalbumin, Ser Ile Ile Asn Phe Glu Lys Leu], the “cytotoxic activity … (antigen specificity)” value in data set [1] is given as “selectively damaged the cells presenting respective inoculated antigenic peptides”.

On to `CC(C)C[C@H](NC(=O)CNC(=O)[C@H](CCC(N)=O)NC(=O)[C@H](Cc1ccc(O)cc1)NC(=O)[C@@H](NC(=O)[C@H](Cc1ccc(O)cc1)NC(=O)CNC(=O)[C@@H](N)CCCNC(=N)N)C(C)C)C(=O)O` [VSV NP, Arg Gly Tyr Val Tyr Gln Gly Leu], for which the “cytotoxic activity … (antigen specificity)” value in data set [1] was “selectively damaged the cells presenting respective inoculated antigenic peptides”.
